In brackets after ≈: the same amount, converted by molar mass.

Data set [1] in a line: Solubility of DS in presence of hydrophilic polymers (CMC-Na) and cyclodextrins. Format: physicochemical. Here is the method: (§1) 2 ml Eppendorf tubes can be filled with about 1.8 ml aqueous solution with a selected pH value. The volume used for the screening is 1.8 ml. The molar amount of cyclodextrin (CD) in the given volume is calculated for the given CD concentration. For a given molar ratio of active ingredient DS/CD the amount of active ingredient (DS) is calculated. Normally, a molar ratio of DS/CD=1/1 is targeted: 1 mol DS and 1 mol CD. As precise as possible, the calculated amount of DS is weighted into the tube exactly. The actual amount is reported.
(§2) According to the actual amount of DS the necessary volume of CD solution is calculated. As precise as possible, the requested volume of CD solution is pipetted into the tube. The actual volume pipetted is reported. The solution in the tube is placed on an Eppendorf Vario shaker. The solution is intensively shaken by means of ultrasound (Hielscher Ultrasound Processor) for 10 seconds at the maximum. It is payed attention to heat generation and overheating has to be avoided.
(§3) The tube is shaken for 1 hour in the Eppendorf Thermomixer at the given temperature and at 800 rpm. Subsequently, the pH value is checked and the given pH value adjusted accordingly, if necessary. The tube is shaken for 24 hours in the Eppendorf Thermomixer at the given temperature and at 800 rpm.
Eppendorf tubes are centrifuged for about 15 minutes at the given temperature, but at 40° C. at the maximum (max. temperature of the centrifuge), and 14,000 rpm. In case no clear supernatant is obtained centrifugation is repeated with adjusted rpm (revolutions per minute) and time. In case the supernatant is not clear and a filtration step is necessary the content of the tube is sucked or poured into 2 ml single use syringe. The supernatant is filtered through a 0.2 μm filter (Pall GHP Acrodisc 13 mm Syringe Filter 0.2 μm pore size). About 2-3 drops of the solution are discarded. The rest of the volume is collected in a second tube. If temperatures above room temperature (about 22° C.) are given, filters and tubes have to be tempered at that temperature prior to use.
(§4) The clear supernatant or filtrate is used for the analysis of the concentration. The pH value of the clear solution is analysed. The DS concentration of the clear solution is measured by UV/VIS spectroscopy (e.g., Hewlett-Packard 8453 UV/Visible Spectrophotometer).
DS, especially Dabigatranetexilat methanesulphonate, is tested for its solubility in dependency of the presence of various hydrophilic polymers and various cyclodextrins whereby the hydrophilic polymer is added to the aqueous solution before adding the DS.

Data set [2] can be described thus: Solubility of the active ingredient (DS) in cyclodextrin solutions at various pH values (UV/VIS). Format: physicochemical. The procedure:
Dabigatranetexilat methanesulphonate is tested for its solubility in dependency of the presence of various cyclodextrins at various ph values as follows:
as §1, §2, §3
Eppendorf tubes are centrifuged for about 15 minutes at the given temperature, but at 40° C. at the maximum (max. temperature of the centrifuge), and 14,000 rpm. In case no clear supernatant is obtained centrifugation is repeated with adjusted rpm (revolutions per minute) and time. […]
as §4

`CCCCCCOC(=O)NC(=N)c1ccc(NCc2nc3cc(C(=O)N(CCC(=O)OCC)c4ccccn4)ccc3n2C)cc1` [DS, dabigatran etexilate]: in data set [1] (addition of 0.05% to 0.5% of CMC-Na, α-CD 10% (w/v)), the “increase of the solubility of the DS and of the drug load DS/CD” value is given as “up to 11%”. For the same compound, the “complexation efficiency of the CD” value in data set [1] (addition of a hydrophilic polymer before adding the DS) was “significantly improved”. Also, the solubility at 24 h in data set [1] (aqueous α-cyclodextrin solution with CMC-Na, aqueous with cosolvent or surfactant or cyclodextrin, thermodynamic from solid, 14% α-CD solution at pH 3 with 0.25% CMC-Na) is roughly 67.3 mg/mL; in data set [2] (aqueous α-cyclodextrin solution, aqueous with cosolvent or surfactant or cyclodextrin, thermodynamic from solid, 10% (w/v) α-CD solution at pH 3) it was roughly 43 mg/mL (≈ 68.5 mM). For the same compound, the “g α-CD to complex 1 g API” value in data set [1] (α-CD, CMC-Na added) is given as “≈ 2.1 g”. For the same compound, the “mol α-CD necessary to complex 1 mol API” value in data set [1] (α-CD, CMC-Na added) is “About 1.6 mol”; in data set [2] (α-CD 10% (w/v)), “About 1.7 mol”. For the same compound, in data set [2] (all cyclodextrins tested, various pH values), the “effect of cyclodextrins on solubility of the active ingredient” value is given as “significantly improve the solubility”.

What is called solubility is the concentration that dissolves in the medium under given conditions.
